{
  "source": "patent US10087176B2",
  "about": "“3,5-dichloro,4-(3,4-(cyclo-)alkoxyphenyl)--2-carbonyloxy)ethyl)pyridine derivatives as PDE-4 inhibitors” (Chiesi Farmaceutici S.p.A., priority 2014, dated 2018)",
  "origin": "cited, not measured here",
  "key": {"[1]": {"test_system": "neutrophils and CXCL8 in sputum", "conditions": "COPD patients, oral, given over 4 weeks"}, "[2]": {"test_system": "lung inflammation and emphysema", "conditions": "smoking model of COPD in mice"}, "[3]": {"conditions": "patients with severe disease, frequent exacerbations and mucus hypersecretion"}},
  "data": [
    {"smiles": "O=C(Nc1c(Cl)cncc1Cl)c1ccc(OC(F)F)c(OCC2CC2)c1", "note": "[roflumilast]", "values": [
      {"measurement": "effect on CXCL8 concentrations in sputum", "setting": "[1]", "value": "significantly reduces"},
      {"measurement": "reduction of numbers of neutrophils in sputum", "setting": "[1]", "value": 36, "unit": "%"},
      {"measurement": "effect on lung inflammation and emphysema", "setting": "[2]", "value": "inhibits lung inflammation and emphysema"},
      {"measurement": "improvement of FEV 1", "setting": "[3]", "value": "approximately 50 ml"},
      {"measurement": "reduction of exacerbation", "setting": "[3]", "value": "about 15%"}
    ]}
  ]
}
